Where two headings read alike, the source gives them in different places.
Legend:
[1] = test system: human lung cancer cell line NCI-H460; assay: Cell growth inhibition assay (MTT), NCI-H460; format: cell-based; settings: read-out: GI50 value (50% growth inhibitory concentration)
Method: (§1) A cell growth inhibition assay was performed using two types of cells (human breast cancer cell line SK-BR-3 and human lung cancer cell line NCI-H460).
(§2) Cells of each type were suspended in a medium and seeded into a 96-well multi-well plate at 500 cells/150 μl/well. The test compound was dissolved in DMSO, and this was diluted with medium to prepare a sample solution (DMSO concentration: 0.5% or less). On the day following the seeding, 50 μL of DMSO-containing medium to which the test compound was not added (hereinafter called DMSO diluted solution; DMSO concentration: 0.5% or less) or the sample solution was added to the cells. An MTT assay was performed immediately after and 72 hours after adding the sample solution or the DMSO diluted solution to the cells. The MTT assay was performed as follows.
(§3) 5 mg/mL of an MTT (3-(4,5-dimethylthiazol-2-yl)-2,5-diphenyltetrazolium bromide) solution was added at 20 μL per well. Thereafter, the plate was incubated at 37° C. in 5% CO2 for four hours. The plate was centrifuged at 1200 rpm for five minutes, and then the culture supernatant was removed by suction using a dispenser. DMSO was added at 150 μL per well, and the generated formazan was dissolved. The plate was stirred using a plate mixer to uniformly color the respective wells. The absorbance of each well was measured using a plate reader at an OD of 540 nm with a reference of 660 nm.
(§4) T/C (%) for each concentration was determined by the following calculation formula and a dose-response curve was drawn to calculate the 50% growth inhibitory concentration (GI50 value), based on the assumption that the OD value measured immediately after adding the sample solution was S, the OD value measured 72 hours after adding the sample solution was T, and the OD value measured 72 hours after adding the DMSO diluted solution was C. T/C(%)=(T−S)/(C−S)×100

[2] = target: T1, recombinant yeast Hsp90 protein (rHsp90) (Saccharomyces cerevisiae, UniProt P02829); assay: Hsp90 ATPase assay; format: biochemical; settings: rHsp90 100 μg/mL, ATP 100 μM, 37° C., two hours, BIOMOL GREEN; read-out: IC50 value (concentration for 50% inhibition of ATP activity)
T1 construct: made in house; host or cells: Escherichia coli
Method: An Hsp90 ATPase assay was performed using a recombinant yeast Hsp90 protein (hereinafter called rHsp90). Yeast Hsp90 DNA was cloned from a yeast genomic DNA library according to a conventional method. The cloned yeast Hsp90 DNA was incorporated into a plasmid for expression in Escherichia coli, and the plasmid was expressed in Escherichia coli to obtain rHsp90.
The test compound was dissolved in DMSO to 10 mM. The dissolved solution was diluted with DMSO to eight concentrations ranging in three-fold dilutions from 4 mM. Each diluted solution was further 10-fold diluted with an assay buffer (100 mM Tris, pH 7.4, 20 mM KCl, 6 mM MgCl2) (concentration of each test compound solution: 400 μM, 133 μM, 44.4 μM, 14.8 μM, 4.94 μM, 1.65 μM, 0.549 μM, 0.183 μM; DMSO concentration: 10%).
rHsp90 was dissolved in a TE buffer (20 mM Tris, pH 7.4, 1 mM EDTA) to a concentration of 2.531 mg/mL. The dissolved solution was diluted with assay buffer to 125 μg/mL and dispensed to a 96-well assay plate at 40 μL per well (final concentration: 100 μg/mL).
The test compound solution was dispensed at 5 μL per well, and then the solutions in the respective wells were mixed using a plate mixer. 100 mM ATP (Sigma, Catalog No. A-7699) was diluted with assay buffer to 1 mM and dispensed at 5 μL per well (final concentration: 100 μM). The solutions in the respective wells were mixed using a plate mixer, and then the assay plate was allowed to stand in an incubator set at 37° C. for two hours.
BIOMOL GREEN Reagent (BIOMOL, Catalog No. AK-111) was dispensed at 100 μL per well, and the reaction was terminated. The solutions in the respective wells were mixed by pipetting (three times), and then 34% sodium citrate was dispensed at 10 μL per well. The solutions in the respective wells were mixed by pipetting (three times), and then the assay plate was left to stand at room temperature for 10 minutes. The absorbance at 630 nm of each well was measured with a microplate reader.
The ratio of the absorbance of the test compound-added group to the absorbance of the test compound-free group (T/C value) was determined by the following calculation formula, based on the assumption that the absorbance of the well to which the test compound and rHsp90 were added was A, the absorbance of the well to which only rHsp90 was added was B, and the absorbance of the well to which neither the test compound nor rHsp90 was added was C. T/C=(A−C)/(B−C)
Further, the concentration for 50% inhibition of ATP activity (IC50 value) was calculated using GraphPad Prism 4 (GraphPad Software, Inc.).

[3] = test system: human breast cancer cell line SK-BR-3; assay: Cell growth inhibition assay (MTT), SK-BR-3; format: cell-based; settings: read-out: GI50 value (50% growth inhibitory concentration)
Method: as §1, §2, §3, §4

[4] = Homo sapiens, NCI-H460, MTT assay, 72 hours
[5] = Homo sapiens, SK-BR-3, MTT assay, 72 hours

T1 sequence (P02829 whole entry): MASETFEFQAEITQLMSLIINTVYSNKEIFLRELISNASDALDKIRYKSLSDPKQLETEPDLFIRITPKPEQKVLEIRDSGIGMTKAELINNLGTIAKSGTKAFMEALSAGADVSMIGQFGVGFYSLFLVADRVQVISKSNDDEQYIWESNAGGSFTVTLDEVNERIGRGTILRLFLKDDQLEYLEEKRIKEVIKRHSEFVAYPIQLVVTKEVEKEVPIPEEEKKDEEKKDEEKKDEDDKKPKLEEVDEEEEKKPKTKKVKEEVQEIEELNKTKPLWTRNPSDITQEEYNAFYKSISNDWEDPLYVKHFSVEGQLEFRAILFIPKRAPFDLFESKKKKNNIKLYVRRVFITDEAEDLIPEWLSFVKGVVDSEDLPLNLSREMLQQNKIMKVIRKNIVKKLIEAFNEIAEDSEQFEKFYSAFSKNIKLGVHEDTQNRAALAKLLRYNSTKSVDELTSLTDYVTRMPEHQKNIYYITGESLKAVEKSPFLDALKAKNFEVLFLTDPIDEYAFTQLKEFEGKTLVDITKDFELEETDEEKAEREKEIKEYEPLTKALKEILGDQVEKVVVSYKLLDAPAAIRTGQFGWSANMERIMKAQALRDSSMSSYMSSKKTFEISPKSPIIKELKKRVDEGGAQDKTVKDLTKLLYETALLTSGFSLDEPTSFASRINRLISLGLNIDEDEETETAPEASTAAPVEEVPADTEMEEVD

COc1c(C)cnc(Cn2nc3c4c(nc(N)nc42)SCC(CC(=O)N2CCC2)=C3)c1C [Example 123, 8-(2-Azetidin-1-yl-2-oxoethyl)-2-[(4-methoxy-3,5-dimethylpyridin-2-yl)methyl]-2,7-dihydro-6-thia-1,2,3,5-tetraazabenzo[cd]azulen-4-amine]
GI50 [1, 4]: 71 nM
IC50 [2]: 630 nM
GI50 [3, 5]: 38 nM

COc1c(C)cnc(Cn2nc3c4c(nc(N)nc42)SCC(CCn2ccnc2)=C3)c1C [Example 137, 8-[2-(1H-Imidazol-1-yl)ethyl]-2-[(4-methoxy-3,5-dimethylpyridin-2-yl)methyl]-2,7-dihydro-6-thia-1,2,3,5-tetraazabenzo[cd]azulen-4-amine]
GI50 ([1]; Homo sapiens, NCI-H460, 72 h): 200 nM
IC50 [2]: 950 nM
GI50 ([3]; Homo sapiens, SK-BR-3, 72 h): 67 nM

COc1c(C)cnc(Cn2nc3c4c(nc(N)nc42)SCC(CCN2CCCC2)=C3)c1C [Example 141, 2-[(4-Methoxy-3,5-dimethylpyridin-2-yl)methyl]-8-(2-pyrrolidin-1-ylethyl)-2,7-dihydro-6-thia-1,2,3,5-tetraazabenzo[cd]azulen-4-amine]
GI50 ([1]; Homo sapiens, NCI-H460, 72 h): 260 nM
IC50 [2]: 1000 nM
GI50 ([3]; Homo sapiens, SK-BR-3, 72 h): 41 nM

COc1c(C)cnc(Cn2nc3c4c(nc(N)nc42)SCC(CCN2CCCCC2)=C3)c1C [Example 145, 2-[(4-Methoxy-3,5-dimethylpyridin-2-yl)methyl]-8-(2-piperidin-1-ylethyl)-2,7-dihydro-6-thia-1,2,3,5-tetraazabenzo[cd]azulen-4-amine]
GI50 ([1]; Homo sapiens, NCI-H460, 72 h): 45 nM
IC50 [2]: 890 nM
GI50 ([3]; Homo sapiens, SK-BR-3, 72 h): 19 nM

COc1c(C)cnc(Cn2nc3c4c(nc(N)nc42)SC=C3)c1C [Example 151, 2-[(4-Methoxy-3,5-dimethylpyridin-2-yl)methyl]-2H-6-thia-1,2,3,5-tetraazaacenaphthylen-4-amine]
GI50 ([1]; Homo sapiens, NCI-H460, 72 h): 110 nM
IC50 [2]: 890 nM
GI50 ([3]; Homo sapiens, SK-BR-3, 72 h): 48 nM

Nc1nc2c3c(nn(Cc4cc5ccccc5cn4)c3n1)CCS2 [Example 153]
GI50 [1, 4]: 5900 nM
IC50 [2]: 1900 nM
GI50 [3, 5]: 2600 nM

COc1ccnc(Cn2nc3c4c(nc(N)nc42)SCC3)c1C [Example 164, 2-[(4-Methoxy-3-methylpyridin-2-yl)methyl]-7,8-dihydro-2H-6-thia-1,2,3,5-tetraazaacenaphthylen-4-amine]
GI50 [1, 4]: 760 nM
IC50 [2]: 970 nM
GI50 [3, 5]: 410 nM

Cn1c(=O)c(Cn2nc3c4c(nc(N)nc42)SCC3)cc2ccccc21 [Example 165, 3-[(4-Amino-7,8-dihydro-2H-6-thia-1,2,3,5-tetraazaacenaphthylen-2-yl)methyl]-1-methylquinolin-2(1H)-one]
GI50 [1, 4]: 16000 nM
IC50 [2]: 2000 nM
GI50 [3, 5]: 6800 nM

Nc1nc2c3c(nn(Cc4ccc5c(c4)OCO5)c3n1)CCS2 [Example 167, 2-(1,3-Benzodioxol-5-ylmethyl)-7,8-dihydro-2H-6-thia-1,2,3,5-tetraazaacenaphthylen-4-amine]
GI50 [1, 4]: 7300 nM
IC50 [2]: 5400 nM
GI50 [3, 5]: 3300 nM

COc1c(C)cnc(Cn2nc3c4c(nc(N)nc42)SC(C(=O)Nc2nccs2)C3)c1C (stereo not drawn) [Example 191, 4-Amino-2-[(4-methoxy-3,5-dimethylpyridin-2-yl)methyl]-N-(1,3-thiazol-2-yl)-7,8-dihydro-2H-6-thia-1,2,3,5-tetraazaacenaphthylene-7-carboxamide]
GI50 [1, 4]: 57 nM
IC50 [2]: 1500 nM
GI50 [3, 5]: 20 nM

COc1c(C)cnc(Cn2nc3c4c(nc(N)nc42)SC(C(=O)Nc2ncc(C)s2)C3)c1C (stereo not drawn) [Example 194, 4-Amino-2-[(4-methoxy-3,5-dimethylpyridin-2-yl)methyl]-N-(5-methyl-1,3-thiazol-2-yl)-7,8-dihydro-2H-6-thia-1,2,3,5-tetraazaacenaphthylene-7-carboxamide]
GI50 [1, 4]: 37 nM
IC50 [2]: 1800 nM
GI50 [3, 5]: 17 nM

COc1c(C)cnc(Cn2nc3c4c(nc(N)nc42)SCC(C(=O)N2CCC(F)(F)C2)=C3)c1C [Example 218, 8-[(3,3-Difluoropyrrolidin-1-yl)carbonyl]-2-[(4-methoxy-3,5-dimethylpyridin-2-yl)methyl]-2,7-dihydro-6-thia-1,2,3,5-tetraazabenzo[cd]azulen-4-amine]
GI50 ([1]; Homo sapiens, NCI-H460, 72 h): 160 nM
IC50 [2]: 2300 nM
GI50 ([3]; Homo sapiens, SK-BR-3, 72 h): 75 nM

COc1c(C)cnc(Cn2nc3c4c(nc(N)nc42)SCC(c2cccnc2)=C3)c1C [Example 223, 2-[(4-Methoxy-3,5-dimethylpyridin-2-yl)methyl]-8-pyridin-3-yl-2,7-dihydro-6-thia-1,2,3,5-tetraazabenzo[cd]azulen-4-amine]
GI50 ([1]; Homo sapiens, NCI-H460, 72 h): 250 nM
IC50 [2]: 1100 nM
GI50 ([3]; Homo sapiens, SK-BR-3, 72 h): 140 nM

N^8-(S)-Cyclopropyl-2-[(4-methoxy-3,5-dimethylpyridin-2-yl)methyl]-2,7,8,9-tetrahydro-6-thia-1,2,3,5-tetraazabenzo[cd]azulene-4,8-diamine [Example 181]
GI50 ([1]; NCI-H460, MTT assay, 72 hours): 76 nM
IC50 [2]: 3100 nM
GI50 ([3]; SK-BR-3, MTT assay, 72 hours): 45 nM

— US8158638B2, “Pyrazolopyrimidine derivative” (Daiichi Sankyo Company, Limited, priority 2006, dated 2012)
